Laboratory results as given in the NIST ThermoML archive (doi:10.1021/je400510j).
Where “and” joins values, the source holds several entries; their conditions need not be identical. Identical values can stand only once.

Details: Liquid; for vapor or sublimation pressure: Closed cell (Static) method; for mass density: 101.33 kPa, Vibrating tube method

c1ccncc1 [pyridine]
Details | vapor or sublimation pressure
288.15 K | 1.65 kPa and 1.72 kPa
293.15 K | 2.2 kPa and 2.25 kPa
298.15 K | 2.83 kPa and 2.85 kPa
303.15 K | 3.45 kPa

Cc1ccccc1 [toluene]
Details | vapor or sublimation pressure
288.15 K | 2.42 kPa and 2.35 kPa
293.15 K | 3.18 kPa and 3.05 kPa
298.15 K | 3.84 kPa
303.15 K | 4.73 kPa

O [water]
Details | vapor or sublimation pressure [kPa]
283.15 K | 1.27
288.15 K | 1.73
293.15 K | 2.33
298.15 K | 3.2

CO[PH](=O)[O-].Cn1cc[n+](C)c1 [1,3-dimethylimidazolium methyl phosphonate]
Details | mass density [kg/m3]
298.15 K | 1230.6
299.45 K | 1229.8
300.75 K | 1229.3
302.15 K | 1228.6
303.45 K | 1227.9
304.75 K | 1227.3
305.85 K | 1226.6
307.15 K | 1225.8
308.65 K | 1224.9
310.35 K | 1223.9
311.75 K | 1223.1
313.05 K | 1222.4
314.45 K | 1221.5
315.85 K | 1220.7
317.25 K | 1219.9
318.75 K | 1219.2

c1ccsc1 [thiophene]
Details | vapor or sublimation pressure
288.15 K | 6.78 kPa and 6.75 kPa
293.15 K | 8.7 kPa and 8.74 kPa
298.15 K | 10.37 kPa and 10.58 kPa
303.15 K | 12.98 kPa
